Structures are written as SMILES. Where two headings read alike, the source gives them in different places.

The record followed here is paper PMC7059030, “Design, Synthesis, Molecular Modeling Studies and Biological Evaluation of N′-Arylidene-6-(benzyloxy)-4-oxo-1,4-dihydroquinoline-3-carbohydrazide Derivatives as Novel Anti-HCV Agents” (Iranian Journal of Pharmaceutical Research : IJPR, 2019).

The test system of data set [1] is HCV (JFH-1 strain) in Huh7.5 cells. As to the kind of experiment: Cell-based HCV replicon assay (RT-qPCR of HCV RNA in infected Huh7.5 cells). On the set-up: species or system hepatitis C virus. Particulars: for EC50: Huh7.5 cells infected with HCV (JFH-1), three days, HCV RNA by quantitative RT-PCR; for SI = CC50/EC50: selectivity index, CC50 (Huh-7.5, XTT) / EC50 (HCV replicon). On the procedure: The plasmid encoding the full genome of […] (JFH-1) strain (kindly provided by Wakita T) was used for in-vitro transcription to produce approximately high titer stocks of cell culture-produced virus (HCVcc) as previously described ([37]).
Huh7.5 cells were seeded into 48-well plates at a density of 3×10^5 cells per well with DMEM containing 10% FBS. After 24 h, huh7.5 cells were infected with HCV viral stock ([…]) for 3 h, at which point the infection was stopped and each well was washed three times by sterile PBS to removed non-penetrated virions and then the fresh medium was added to each well. Subsequently, the infected cells were treated with newly synthesized compounds at different concentrations and the sofosbuvir (Sigma-Aldrich, USA) as a positive control. After three days inoculation, the supernatant medium was collected and the viral RNA was extracted using viral QIAamp viral RNA mini kit (Qiagen, Düsseldorf, Germany), according to the manufacturer protocol. Then, the amount of HCV replicon RNA was determined using Quantitative RT-PCR assay by hepatitis C virus viral load kit (Gene Proof, Czech Republic, with CE, IVD) according to the manufacturer’s instruction.
The 50% effective concentration (EC50) was determined as the ratio of the normalized HCV RNA amount in treated samples relative to the controls (the samples without compound treatment) using GraphPad Prism5.0 software (GraphPad Software, San Diego, CA).
Target compounds 13-25 were evaluated in a cell-based viral replication surrogate assay known as the replicon system ([39]). We hypothesized that our quinolone analogues will inhibit NS5B, likely via binding to the active site. To test this hypothesis, FDA-approved active site binding NI, sofosbuvir, was used as a control compound. In parallel, compounds were also evaluated for their cytotoxic effects in the same cell line to ensure that the activity is completely devoid of cytotoxicity effects. The biological results are expressed as EC50, CC50 and SI (selectivity index, given by the CC50/EC50 ratio).
(In general: In antiviral work, replicon cells carry a viral genome segment that copies itself.)

A short description of a further data set: XTT cytotoxicity assay. Type of data set: cell-based. Particulars: human, Huh-7.5 cells. The method, then:
The cytotoxicity of compounds to Huh-7.5 cells was measured in parallel with the HCV replication assay based on the cleavage of the yellow tetrazolium salt XTT® (sodium 3-[1 (phenylaminocarbonyl)-3, 4-tetrazolium]-bis(4-methoxy-6-nitro)benzene sulfonic acid) to generate an orange formazan dye by metabolic function of alive and active cells. Cells were treated with various concentrations ([…]) of compounds and incubated for 72 hours.
The cell cytotoxicity was determined using XTT proliferation assay kit (Sigma-Aldrich) following the manufacturer’s instructions. The 50% cytotoxic concentration (CC50) was defined as the concentration of compound that reduced cell proliferation by 50%.
On the technique in general: Tetrazolium assays rely on reduction of a dye to a coloured formazan, in cell work by metabolically active cells.

Setting [2] is: Hepatitis C virus, Huh7.5, 72 h, read-out: EC50.
The mark [3] stands for this setting: Hepatitis C virus, Huh7.5, 72 h.

As to `O=C(NN=Cc1ccccc1)c1c[nH]c2ccc(OCc3ccccc3)cc2c1=O` [Compound 13, N′-Benzylidene-6-(benzyloxy)-4-oxo-1,4-dihydroquinoline-3-carbohydrazide], the melting point was 130 °C (dec.). Besides, in data set [1] (setting [2]), the EC50 was more than 200 µM. The compound further returned a CC50 at 72 h in “XTT cytotoxicity assay” of more than 200 µM.

`CSc1ccc(C=NNC(=O)c2c[nH]c3ccc(OCc4ccccc4)cc3c2=O)cc1` [Compound 14, 6-(Benzyloxy)-N′-(4-(methylthio)benzylidene)-4-oxo-1,4-dihydroquinoline-3-carbohydrazide]: the melting point was 160 °C (dec.). The same compound returned an EC50 in data set [1] (setting [3]) of more than 200 µM. This compound showed a CC50 at 72 h in “XTT cytotoxicity assay” of more than 200 µM.

Take `O=C(NN=Cc1ccc(F)cc1)c1c[nH]c2ccc(OCc3ccccc3)cc2c1=O` [Compound 15, 6-(Benzyloxy)-N′-(4-fluorobenzylidene)-4-oxo-1,4-dihydroquinoline-3-carbohydrazide]: the melting point was 305 °C (dec.). The EC50 in data set [1] (setting [2]) was more than 200 µM. The CC50 at 72 h in the data set “XTT cytotoxicity assay” is more than 200 µM.

As for `O=C(NN=Cc1ccc(Cl)cc1)c1c[nH]c2ccc(OCc3ccccc3)cc2c1=O` [Compound 16, 6-(Benzyloxy)-N′-(4-chlorobenzylidene)-4-oxo-1,4-dihydroquinoline-3-carbohydrazide], the melting point is 329 °C (dec.). Further, in data set [1] (setting [2]), the EC50 was more than 200 µM. This compound also had a CC50 at 72 h in the data set “XTT cytotoxicity assay” of more than 200 µM.

As for `Cc1ccc(C=NNC(=O)c2c[nH]c3ccc(OCc4ccccc4)cc3c2=O)cc1` [Compound 17, 6-(Benzyloxy)-N′-(4-methylbenzylidene)-4-oxo-1,4-dihydroquinoline-3-carbohydrazide], the melting point was 330 °C (dec.). In data set [1] (setting [3]), this compound came in with an EC50 of more than 200 µM. Also, the CC50 at 72 h in the data set “XTT cytotoxicity assay” is more than 200 µM.

For the compound `COc1ccc(C=NNC(=O)c2c[nH]c3ccc(OCc4ccccc4)cc3c2=O)cc1` [Compound 18, 6-(Benzyloxy)-N′-(4-methoxybenzylidene)-4-oxo-1,4-dihydroquinoline-3-carbohydrazide], the melting point is 154 °C (dec.). Also, the “SI = CC50/EC50” value in data set [1] is on record as more than 2. In the data set “XTT cytotoxicity assay”, this compound gave a CC50 at 72 h of more than 200 µM.

For `O=C(NN=Cc1cccc(F)c1)c1c[nH]c2ccc(OCc3ccccc3)cc2c1=O` [Compound 19, 6-(Benzyloxy)-N′-(3-fluorobenzylidene)-4-oxo-1,4-dihydroquinoline-3-carbohydrazide], the melting point is 305 °C (dec.). Moreover, the concentration for a half-maximal effect (EC50) in data set [1] (setting [2]) was more than 200 µM. Besides, in “XTT cytotoxicity assay”, the half-maximal cytotoxic concentration (CC50) at 72 h is more than 200 µM.

With `O=C(NN=Cc1ccccc1F)c1c[nH]c2ccc(OCc3ccccc3)cc2c1=O` [Compound 20, 6-(Benzyloxy)-N′-(2-fluorobenzylidene)-4-oxo-1,4-dihydroquinoline-3-carbohydrazide], the melting point was 324 °C (dec.). Further, a half-maximal effect in data set [1] (setting [3]) (EC50) was put at 70 µM. Besides, in data set [1], the midpoint of the response, the EC50, lay at 120 µM and the “SI = CC50/EC50” value was more than 2. The same compound yielded a CC50 at 72 h in “XTT cytotoxicity assay” of more than 200 µM.

`O=C(NN=Cc1cccc(Cl)c1)c1c[nH]c2ccc(OCc3ccccc3)cc2c1=O` [Compound 21, 6-(Benzyloxy)-N′-(3-chlorobenzylidene)-4-oxo-1,4-dihydroquinoline-3-carbohydrazide]: the melting point is 291 °C (dec.). Also, in data set [1] (setting [2]), the EC50 is 35 µM. Besides, the “SI = CC50/EC50” value in data set [1] was 2.5. This compound gave a CC50 at 72 h in “XTT cytotoxicity assay” of 90 µM.

As to `Cc1cccc(C=NNC(=O)c2c[nH]c3ccc(OCc4ccccc4)cc3c2=O)c1` [Compound 22, 6-(Benzyloxy)-N′-(3-methylbenzylidene)-4-oxo-1,4-dihydroquinoline-3-carbohydrazide], the melting point is 310 °C (dec.). Also, the EC50 in data set [1] (setting [2]) is 45 µM. Besides, the “SI = CC50/EC50” value in data set [1] is given as 2.2. The same compound showed a CC50 at 72 h in “XTT cytotoxicity assay” of 100 µM.

`Cc1ccccc1C=NNC(=O)c1c[nH]c2ccc(OCc3ccccc3)cc2c1=O` [Compound 23, 6-(Benzyloxy)-N′-(2-methylbenzylidene)-4-oxo-1,4-dihydroquinoline-3-carbohydrazide]: the melting point is 290 °C (dec.). In addition, the EC50 in data set [1] (setting [2]) came out at 70 µM. In data set [1], the “SI = CC50/EC50” value is on record as 2.2. The compound further registered a CC50 at 72 h in “XTT cytotoxicity assay” of 160 µM.

In the case of `COc1cccc(C=NNC(=O)c2c[nH]c3ccc(OCc4ccccc4)cc3c2=O)c1` [Compound 24, 6-(Benzyloxy)-N′-(3-methoxybenzylidene)-4-oxo-1,4-dihydroquinoline-3-carbohydrazide], the melting point is 280 °C (dec.). For the same compound, the EC50 in data set [1] (setting [2]) is 120 µM. Also, the “SI = CC50/EC50” value in data set [1] is given as more than 1.8. In addition, in the data set “XTT cytotoxicity assay”, the CC50 at 72 h is more than 200 µM.

As to `COc1ccccc1C=NNC(=O)c1c[nH]c2ccc(OCc3ccccc3)cc2c1=O` [Compound 25, 6-(Benzyloxy)-N′-(2-methoxybenzylidene)-4-oxo-1,4-dihydroquinoline-3-carbohydrazide], the melting point was 299 °C (dec.). Further, the EC50 in data set [1] (setting [2]) is more than 200 µM. For the same compound, in “XTT cytotoxicity assay”, the CC50 at 72 h was more than 200 µM.

Consider `CC(C)OC(=O)[C@H](C)N[P@](=O)(OC[C@H]1O[C@@H](n2ccc(=O)[nH]c2=O)[C@](C)(F)[C@@H]1O)Oc1ccccc1` [Sofosbuvir, sofosbuvir, reference compound], for which the concentration giving a half-maximal response (EC50) in data set [1] (setting [2]) stood at 5 µM. Also, in data set [1], the “SI = CC50/EC50” value is reported as more than 100. In the data set “XTT cytotoxicity assay”, the CC50 at 72 h is more than 500 µM.

The term EC50 denotes the midpoint of the concentration-response curve. In general, CC50 refers to the concentration at which the toxic effect on the cells reaches its halfway point. A lower CC50 goes with harm at low concentration. Broadly, the melting point is the temperature of the solid-liquid transition.
